The results in this text go back to PubChem BioAssay (NCI).

Test in all cases: NCI-60 cell line screen, 48 h
Test [1] has as its system DU-145 prostate.
The test system of test [2] is EKVX NSCLC.
Test [3] has as its system HOP-62 NSCLC.
Test [4] relates to MDA-N.
The test system of test [5] is NCI-H522 lung.
In test [6] the test system is NCI/ADR-RES ovarian.
The subject of test [7] is SR leukemia.
Test [8] has as its system U251 CNS.
Test [9] relates to UACC-257 melanoma.
The subject of test [10] is UO-31 renal.
Test [11] relates to HOP-92 NSCLC.

Structures are written as SMILES.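 Assay format: 96-well plates, 48-hour exposure. TGI denotes the concentration required for complete inhibition of growth.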

Turning to `N#CS/C(C(Cl)=C(Cl)Cl)=C(/Cl)[N+](=O)[O-]`, the TGI in test [1] was 27.8 µM; in test [2], 6.76 µM; in test [3], 33.4 µM; in test [4], 3.18 µM; in [5], 2.13 µM; in test [6], > 28.1 µM. Moreover, the TGI in test [7] was 2.15 µM; in [8] it was 30 µM; in test [9], 3.79 µM; in [10] it was 3.1 µM.
Take `COc1cc2c(cc1C)NC(=O)/C2=C/c1c(Cl)[nH]c2cc(C)c(OC)cc12`: the TGI in test [1] is 14.8 µM; in [2] it was 22.8 µM; in [3], 23.2 µM; in test [11], 23.7 µM; in test [4] it was 8.93 µM; in test [5], 19.8 µM. In addition, the TGI came out at 13.5 µM in test [6]; 12 µM in test [7]; 15.3 µM in [8]; 23.7 µM in test [9]; 23.4 µM in test [10].
On to `NC(CCCCCP(=O)(O)O)C(=O)O` (configuration not stated), for which the TGI in [1], in test [2], in test [11], in [4], in [5] and in test [6] was > 100 µM in each case. Further, the TGI in test [7], in [8], in test [9] and in [10] was > 100 µM each time.
With `COc1ccc(C2CCc3nc4nc(N)nc(N)c4cc3C2)cc1` (configuration not stated), the TGI in [1] is > 100 µM; in [2] it was > 100 µM; in [3], 33.9 µM; in test [11] it was 9.31 µM; in test [4] it was > 100 µM; in [5], > 100 µM. The TGI in [6] is > 100 µM; in [7], 67.3 µM; in test [8] it was 29.4 µM; in test [9], > 100 µM.
As to `NS(=O)(=O)c1nnc(NC(=O)CCC(=O)O)s1`, the TGI in test [1], in [2], in test [3], in test [11], in test [4] and in test [5] was > 100 µM throughout. For the same compound, the TGI in test [6], in test [7], in [8], in test [9] and in test [10] was > 100 µM each time.
In the case of `CC(C)OP(=O)(OC(C)C)C(C(F)(F)F)C(F)(F)F`, the TGI in test [1], in [2], in test [3], in [11], in test [4] and in [5] was > 100 µM throughout. For the same compound, the TGI in test [6], in test [7], in [8], in [9] and in [10] was > 100 µM in each case.
Consider `CSC1=N/C(=C\c2cccs2)C(=O)N1CN1CCOCC1`, for which the TGI in test [1] was > 100 µM; in [2], > 100 µM; in test [3], > 100 µM; in [11], 94.3 µM; in test [4], > 100 µM; in [5] it was > 100 µM. Also, the TGI in test [6] was 90.5 µM; in [7] it was > 100 µM; in [8], > 100 µM; in test [10], > 100 µM.
Take `CC(=O)OCC1C(C(C)OC(C)=O)CCC2C1CCC1(C)C(OC(C)=O)CCC21` (configuration not stated): the TGI in test [1] is > 100 µM; in test [2], 32.9 µM; in test [3], 38.5 µM; in test [11], 37.4 µM; in [4], 37 µM; in test [5], 37.5 µM. In addition, the TGI in test [6] was 44.9 µM; in [7], > 100 µM; in [8] it was 30.5 µM; in test [9], 31.9 µM; in test [10], > 100 µM.
Take `O=C(ON=c1c2ccccc2ccc2ccccc12)c1cc([N+](=O)[O-])cc([N+](=O)[O-])c1`: the TGI in test [1], in test [2], in [3], in [11], in test [4] and in test [6] was > 100 µM in each case. Moreover, the TGI in [7], in test [8], in test [9] and in [10] was > 100 µM in each case.
Consider `CN1CN(c2ccccc2)C2(CCNCC2)C1=O`, for which the TGI in test [1], in test [2], in test [3], in test [11], in test [4] and in test [5] was > 100 µM throughout. The TGI in test [6], in test [7], in test [8], in test [9] and in [10] was > 100 µM in each case.
On to `CCCCc1ccc(Nc2nc3c(ncn3C3OC(COC(C)=O)C(OC(C)=O)C3OC(C)=O)c(=O)[nH]2)cc1` (configuration not stated), for which the TGI in test [1] is 90.6 µM; in test [2], > 100 µM; in test [3], 35.5 µM; in test [11], 30.4 µM; in test [4], 35.4 µM; in test [5], 32.8 µM. The TGI in test [6] is > 100 µM; in [7] it was 35.9 µM; in test [8], 45.4 µM; in [9] it was 34.3 µM; in test [10], > 100 µM.
Take `CCOC(=O)/C(C(=S)NC)=C(/N)N1CCCC1`: the TGI in test [1], in test [2], in [3], in [11], in test [4] and in test [5] was > 100 µM in each case. For the same compound, the TGI in test [6], in [7], in [8], in [9] and in [10] was > 100 µM each time.
For `CC(C)(C)OC(=O)N1C(C2=COc3ccccc3O2)=COc2ccccc21`, the TGI is 78.2 µM in test [1]; 52.3 µM in test [2]; 45.3 µM in test [3]; 73.2 µM in test [11]; > 100 µM in test [4]; 40.8 µM in test [5]. Besides, the TGI was 82.3 µM in test [6]; 53.3 µM in test [7]; > 100 µM in test [8]; 78 µM in [9]; > 100 µM in test [10].
On to `C=C1c2nc3ccccc3n2C=C(c2ccc(Cl)cc2)N1c1ccc(OCCN2CCOCC2)cc1`, for which the TGI was > 100 µM in test [1]; > 100 µM in [3]; > 100 µM in test [11]; > 100 µM in test [4]; > 100 µM in [6]; 42 µM in test [7]. Moreover, the TGI in test [8] is > 100 µM; in test [9] it was 90.3 µM; in test [10] it was > 100 µM.
For the compound `CC1=CC(c2ccccc2)OP1(=O)c1ccccc1` (configuration not stated), the TGI in test [1], in test [2], in test [3], in test [11], in [4] and in test [5] was > 100 µM throughout. Further, the TGI in test [6], in [7], in test [8] and in [9] was > 100 µM in each case.
With `NC(=O)c1cnc2sc3ccccc3n2c1=O`, the TGI in test [1], in test [2], in test [3], in [11], in [4] and in test [5] was > 100 µM throughout. The TGI in test [6], in test [7], in [9] and in [10] was > 100 µM throughout.
Take `O=C1/C(=C/c2ccc(O)cc2)NC(=S)N1CN1CCCCC1`: the TGI in [1], in test [2], in [3], in test [11], in [4] and in test [5] was > 100 µM in each case. Besides, the TGI in test [6], in test [7], in [8] and in test [10] was > 100 µM each time.
`O=C(O)CC(NC(=O)C(F)(F)F)C(=O)NC1Cc2ccccc2OC1=O` (configuration not stated): the TGI in test [1], in test [2], in test [3], in test [4], in test [5] and in test [6] was > 100 µM in each case. The TGI in test [7], in test [8], in test [9] and in test [10] was > 100 µM each time.
As to `O=C(CSc1nc2ccc(I)cc2c(=O)n1Cc1ccccc1)N/N=C/c1ccccc1`, the TGI is > 100 µM in test [1]; > 100 µM in [2]; 20.9 µM in test [3]; 34 µM in [11]; > 100 µM in test [4]; 40 µM in [5]. Also, the TGI in test [6] was 92 µM; in test [7] it was > 100 µM; in test [8] it was 33.3 µM; in [9] it was > 100 µM.
On to `C=C1C(=O)OC2/C=C(\C)CC/C=C(/C)CC(OC(=O)/C(=C/CO)CO)C12` (configuration not stated), for which the TGI in test [1] was 33.1 µM; in test [3], > 100 µM; in test [11], 59.9 µM; in test [4], 47.2 µM; in test [5], 39.9 µM; in test [6], > 100 µM. Further, the TGI in test [7] was > 100 µM; in test [8], 47 µM; in [9] it was 36.3 µM; in [10], 33.8 µM.
